Consider two molecules from patent US9394555B2, “Compositions comprising a polypeptide having cellulolytic enhancing activity and a dioxy compound and uses thereof” (priority 2010, dated 2016).

Common to all, as to type: biochemical
Assay [1] relates to Thielavia terrestris GH61E polypeptide. As to the kind of experiment: Variable pH PASC conversion assay (Examples 29, 30) with Thielavia terrestris GH61E polypeptide. To be noted: gallic acid 0.2% w/w + Thielavia terrestris GH61E polypeptide (10 mg/g) + beta-glucosidase (10 mg/g), 72 hours, 50° C.
Assay [2] has as its target T1, Aspergillus oryzae CEL3A beta-glucosidase (Aspergillus oryzae, UniProt Q2UUD6).
T1 construct: made in house
Put plainly: Variable pH PASC conversion assay (Examples 29, 30) without GH61 polypeptide. To be noted: gallic acid 0.2% w/w + Aspergillus oryzae CEL3A beta-glucosidase (10 mg/g), no GH61, 72 hours, 50° C.

For assay [3], the target named is T2, T. aurantiacus GH61A polypeptide (Thermoascus aurantiacus, UniProt G3XAP7, N13Y). As to the kind of experiment: Bacterial cellulose conversion assay (Examples 15, 16). To be noted: 72 hours, 50° C. As to the method:
Bacterial cellulose was prepared from NATA DE COCO (Huerto International Trading, Lucena City, Philippines) by extensive rinsing of one 500 ml can of cubes with water followed by homogenation for 15 minutes in 0.25 M sodium hydroxide using a WARING BLENDER® (Waring Products, Torrington, Conn., USA). The resulting slurry was pelleted at 40,000×g in a SORVALL® RT7 centrifuge. The supernatant was discarded. The pellet was then resuspended in 0.25 M sodium hydroxide and stirred overnight at 4° C. This procedure was repeated four times. Following the first washing steps, the cellulose was washed six times under similar conditions, substituting water for 0.25 M sodium hydroxide. Following the water washing, the cellulose was again homogenized for 15 minutes in a WARING BLENDER®, and adjusted to a final volume of 250 ml.
A 0.36% bacterial cellulose slurry was prepared as described in Example 14. This 0.36% slurry was thoroughly resuspended by shaking, and quickly transferred to a 100 ml beaker and stirred rapidly with a magnetic stirrer. Seven hundred μl aliquots of the bacterial cellulose slurry were pipetted into wells of a 2.0 ml 96-deepwell plate (Axygen, Union City, Calif.) using a 1000 μl micropipette with a wide aperture tip (end of tip cut off about 2 mm from the base). One hundred μl of 10 mM MnSO4-500 mM sodium acetate pH 5 was then added to each well. One hundred μl of either deionized water, a 1% gallic acid solution dissolved in water, or a 1% gallic acid solution containing 50 mM EDTA were added to each well. Enzyme mixtures were prepared and then added simultaneously to all wells in a volume of 100 μl, for a total of 1 ml in each reaction. […] All experiments reported were performed in triplicate.
Primary analysis of the hydrolysis reactions was performed using an AGILENT® 1100 HPLC with CHEMSTATION® software equipped with an AMINEX™ HPX-87H column. After approximately 4 days, the deep-well plate was removed from the incubator and chilled overnight to 4° C. The plate was then mixed well by inversion and briefly centrifuged 52×g in a SORVALL® RT7 centrifuge for 10 seconds. Samples were then mixed by pipetting, and 200 μl from each well were transferred to a MULTISCREEN® HV centrifuge filter plate assembly. The centrifuge filter plate assembly was centrifuged at 2000 rpm in a SORVALL® RT7 centrifuge for 20 minutes. […] Sugars were detected using a refractive index detector with quantification by integration compared to purified sugar standards.
All HPLC data processing was performed using MICROSOFT EXCEL™ software. […] In this assay only glucose was measured since beta-glucosidase was at high levels in all samples but the controls. Percent conversion was determined using Equation 1. Triplicate data points were averaged and standard deviation was calculated.
The bacterial cellulose hydrolysis assay was performed as described in Example 15.
Data was collected and analyzed, as described in Example 15, after 72 hours of incubation at 50° C.

Assay [4] deals with T2, T. aurantiacus GH61A polypeptide. As to the kind of experiment: Microcrystalline cellulose conversion assay I (Examples 8, 9) with T. aurantiacus GH61A polypeptide. The note with it: T. aurantiacus GH61A polypeptide (10 mg per g cellulose) + endoglucanase II + beta-glucosidase (5 mg/g each), no dioxy compound, 96 hours. As to the method: A 5% microcrystalline cellulose slurry was prepared by addition of 2.5 g of AVICEL®PH101 (Sigma-Aldrich, St. Louis, Mo., USA) to a graduated 50 ml screw-cap conical tube followed by 15 ml of 1 M sodium acetate pH 5 and 1 ml of 100 mM MnSO4 and approximately 20 ml of deionizer water. Each conical tube was then mixed thoroughly by shaking/vortexing, and adjusted to 50 ml total with deionized water and mixed again. Contents of the tube were then quickly transferred to a 100 ml beaker and stirred rapidly with a magnetic stirrer. […]
After approximately 4 days, the deep-well plate was removed from the incubator and chilled overnight to 4° C. […] Sugars were detected using a refractive index detector (Agilent Technologies, Inc., Santa Clara, Calif., USA) with quantification by integration compared to purified sugar standards.
In this assay only glucose was measured since beta-glucosidase was at high levels in all samples but the controls.
A limit digest was performed to determine the total concentration accessible glucose equivalents using 100 mg of T. reesei cellulase (CELLIC™ CTec, Novozymes A/S, Bagsvaerd, Denmark) per gram cellulose, Triplicate data points were averaged and standard deviation was calculated.

T1 sequence (Q2UUD6 20-861): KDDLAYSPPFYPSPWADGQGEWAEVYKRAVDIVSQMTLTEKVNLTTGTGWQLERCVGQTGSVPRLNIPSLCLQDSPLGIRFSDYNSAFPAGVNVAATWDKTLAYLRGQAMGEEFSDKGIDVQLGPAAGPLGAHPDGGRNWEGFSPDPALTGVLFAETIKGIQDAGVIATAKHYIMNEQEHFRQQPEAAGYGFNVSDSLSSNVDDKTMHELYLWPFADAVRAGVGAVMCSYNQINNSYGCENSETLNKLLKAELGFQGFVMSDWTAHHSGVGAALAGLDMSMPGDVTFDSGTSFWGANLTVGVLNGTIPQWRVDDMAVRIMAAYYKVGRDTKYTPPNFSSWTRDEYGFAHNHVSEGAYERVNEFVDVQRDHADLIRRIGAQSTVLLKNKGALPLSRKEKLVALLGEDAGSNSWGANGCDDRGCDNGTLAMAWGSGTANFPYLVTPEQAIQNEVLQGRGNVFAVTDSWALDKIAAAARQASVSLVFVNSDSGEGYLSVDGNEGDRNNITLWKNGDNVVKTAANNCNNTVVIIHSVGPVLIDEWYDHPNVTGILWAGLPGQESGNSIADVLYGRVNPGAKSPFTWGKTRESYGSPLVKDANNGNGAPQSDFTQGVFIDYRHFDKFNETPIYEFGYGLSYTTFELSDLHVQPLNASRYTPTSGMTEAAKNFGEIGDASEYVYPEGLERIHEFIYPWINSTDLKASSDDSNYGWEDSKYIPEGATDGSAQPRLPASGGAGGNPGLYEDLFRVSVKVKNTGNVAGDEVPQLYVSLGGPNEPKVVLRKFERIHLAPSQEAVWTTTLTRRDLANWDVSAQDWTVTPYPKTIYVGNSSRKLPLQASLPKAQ

Turning to `O=C(O)c1cc(O)c(O)c(O)c1` [gallic acid], the “conversion of phosphoric acid swollen cellulose” value in assay [1] (pH 4) was determined as 36.3±3.2%; in assay [1] (pH 5) it was 41.7±3.9%; in assay [1] (pH 6), 33.7±0.2%; in assay [1] (pH 7.5), 23.8±3.0%; in assay [2] (pH 4), 1.6±0.2%; in assay [2] (pH 5), 2.0±0.7%. Besides, the “conversion of phosphoric acid swollen cellulose” value in assay [2] (pH 6) is 1.2±0.5%; in assay [2] (pH 7.5), 1.9±1.2%. The “hydrolysis of the bacterial cellulose” value was “no significant hydrolysis” in assay [3] (gallic acid 0.1% w/w + 5 mM EDTA + A. oryzae CEL3A beta-glucosidase (50 mg/g), no GH61); “no significant hydrolysis” in assay [3] (gallic acid 0.1% w/w + 5 mM EDTA + T. aurantiacus GH61A polypeptide (50 mg/g), no beta-glucosidase); “no significant hydrolysis” in assay [3] (gallic acid 0.1% w/w + A. oryzae CEL3A beta-glucosidase (50 mg/g), no GH61). Further, the “conversion of the bacterial cellulose” value in assay [3] (gallic acid 0.1% w/w + 5 mM EDTA, no enzymes) is recorded as “no significant conversion”; in assay [3] (gallic acid 0.1% w/w alone, no enzymes), “no significant conversion”.

B1: T. aurantiacus GH61A polypeptide: GH61A polypeptide having cellulolytic enhancing activity (SEQ ID NO: 14), recombinantly produced in Aspergillus oryzae JaL250 (protein, listed as Thermoascus aurantiacus)
chain: MSFSKIIATAGVLASASLVAGHGFVQNIVIDGKYYGGYLVNQYPYMSNPPEVIAWSTTATDLGFVDGTGYQTPDIICHRGAKPGALTAPVSPGGTVELQWTPWPDSHHGPVINYLAPCNGDCSTVDKTQLEFFKIAESGLINDDNPPGIWASDNLIAANNSWTVTIPTTIAPGNYVLRHEIIALHSAQNQDGAQNYPQCINLQVTGGGSDNPAGTLGTALYHDTDPGILINIYQKLSSYIIPGPPLYTG
Regarding B1, the “conversion of microcrystalline cellulose” value was 2.2±0.1% in assay [4] (50° C.) and 2.6±0.1% in assay [4] (60° C.). Also, the “conversion of the bacterial cellulose” value in assay [3] (T. aurantiacus GH61A polypeptide (50 mg/g) + A. oryzae CEL3A beta-glucosidase (50 mg/g), no gallic acid) is “no significant conversion”; in assay [3] (T. aurantiacus GH61A polypeptide (50 mg/g) alone), 1.5±1.4%.
